Measurements taken from ChEMBL document CHEMBL1201862, “PubChem BioAssay data set” (2004).
The source made the active and inactive calls.

Key:
[1] = molecular target: T1, Heat shock factor protein 1 (Mus musculus, UniProt P38532); assay: decrease of HSF1-responsive luciferase luminescence – cell-based, NIH3T3, dose retest, confirmation (AID 2382); format: functional;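 note: NIH3T3 fibroblasts with HSF1-driven luciferase reporter stressed by proteasome inhibitor MG132; luminescence from HSF1-driven luciferase expression after 8 hours of MG132 stress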
T1 sequence (P38532 whole entry): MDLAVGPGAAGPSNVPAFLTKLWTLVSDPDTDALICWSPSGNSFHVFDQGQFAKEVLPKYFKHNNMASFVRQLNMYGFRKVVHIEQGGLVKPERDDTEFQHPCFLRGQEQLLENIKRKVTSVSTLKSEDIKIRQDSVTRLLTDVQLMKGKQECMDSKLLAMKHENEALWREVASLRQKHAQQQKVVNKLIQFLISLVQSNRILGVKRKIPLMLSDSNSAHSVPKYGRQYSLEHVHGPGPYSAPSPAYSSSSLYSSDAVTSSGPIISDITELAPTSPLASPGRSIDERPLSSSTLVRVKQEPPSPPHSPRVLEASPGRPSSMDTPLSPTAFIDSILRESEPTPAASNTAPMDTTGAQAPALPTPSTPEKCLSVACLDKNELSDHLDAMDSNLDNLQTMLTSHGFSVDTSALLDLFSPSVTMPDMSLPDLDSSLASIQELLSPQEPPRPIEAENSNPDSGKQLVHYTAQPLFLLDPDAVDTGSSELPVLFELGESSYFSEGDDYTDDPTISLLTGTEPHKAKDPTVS

[2] = HEK-293T viability loss after treatment – luminescence, T-cell screen hits, cytotoxicity control for TCR NF-kB inhibitor project, dose response (AID 489026); format: functional, cell-based;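 note: cells exposed to compound about 14 hours before the viability readout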
[3] = molecular target: Luciferin 4-monooxygenase (Photuris pensylvanica, UniProt Q27757); assay: inhibition of Cell Titer Glo luciferase signal – biochemical, luminescence, cherry-picks, counter-screen for HSF-1 reporter inhibitor project, dose response (AID 588847)
[4] = A549 cell cytotoxicity, dose response, cytotoxicity control, plate reader, cherry-pick, antagonist series (AID 743412); format: functional, cell-based
[5] = blockers of bursicon-stimulated LGR2 cAMP reporter – cell-based, HEK293, CRE-luciferase reporter, cherry pick, set 2, dose response (AID 743343); format: functional;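 note: transfected cells were stimulated with diluted bursicon conditioned medium after compound addition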
[6] = blockade of melanocortin 4 receptor signaling – cell-based, plate reader, cherry pick, counter-screen for LGR2 antagonist project, dose response (AID 743444); format: functional;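 note: transfected HEK 293 cells stimulated with alpha-MSH peptide; potency of inhibitors of the alpha-MSH evoked signal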
[7] = viability loss in HEK293 cells – cell-based, plate reader, cherry-picked samples, cytotoxicity control, dose response (AID 743446); format: functional
[8] = system: HeLa; assay: ATP-based viability loss in HeLa cells – cell-based, CellTiter-Glo luminescence, cherry-pick samples, cytotoxicity control for MITF activator project, dose response (AID 540259); format: functional; details: Homo sapiens
[9] = NIH-3T3 fibroblast cytotoxicity, dose response, cytotoxicity control, cell-based, fluorescence, Alamar Blue, secondary assay (AID 2327); format: functional;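 note: NIH-3T3 mouse fibroblasts cultured with fluconazole at 8 µg/mL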
[10] = molecular target: E3 ubiquitin-protein ligase Mdm2 (Homo sapiens, UniProt Q00987); assay: MDM2-luc reporter signal enhancers, multi-concentration potency testing, MDM2 ubiquitin-protein ligase inhibitor program, whole-cell format, luminescence detection, 384-well microplate (AID 1394); format: functional;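 note: MDM2 E3 inhibitors raise luminescence so EC50 is for signal enhancement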
[11] = Luminescence Cell-Based Dose Confirmation HTS to Identify Activators of 5'UTR Stem-Loop Driven Alpha-Synuclein mRNA Translation in H4 Neuroglioblastoma Cells. [Related pubchem assays: 1829 (Project Summary), 1814 (Primary HTS)]; format: functional
[12] = Luminescence Cell-Based Dose Response HTS to Identify Activators of Luciferase Translation or Activity in H4 […] Cells. [Related pubchem assays: 1829 (Project Summary), 1814 (Primary HTS)]; format: functional
[13] = system: H4; assay: Luminescence Cell-Based Dose Response HTS to Identify Activators of 5'UTR Stem-Loop Driven Prion Protein mRNA Translation in H4 Neuroglioblastoma Cells. [Related pubchem assays: 1829 (Project Summary), 1814 (Primary HTS)]; format: functional; details: Homo sapiens
[14] = fluconazole-exposed Candida albicans growth modulators – fluorescence, retest, confirmation (AID 2467); format: functional, cell-based
[15] = microbe, parasite or virus in culture; format: functional; details: Mycobacterium tuberculosis
[16] = system: CHO; assay: CHO cell viability loss, potency – luminescence, cytotoxicity control for TLR9-MyD88 binding inhibitor project, dose response (AID 588339); format: functional, cell-based, hamster; details: Cricetulus griseus;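 note: CHO cells stably coexpressing TLR9 and MyD88 fusions from primary screen; compound exposure lasted 48 hours before viability readout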
[17] = system: INS1; assay: INS-1E survival protection against cytokine death – cell-based, luminescence, retest, dose response (AID 449756); format: functional; details: Rattus norvegicus;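 note: cell death triggered by IL-1 beta plus TNF-alpha plus IFN-gamma mixture; protective hits raise ATP signal compared with cytokine alone wells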
[18] = molecular target: Serine/threonine-protein phosphatase (Candida dubliniensis (strain CD36 / CBS 7987 / NCPF 3949 / NRRLY-17841) (Yeast), UniProt B9W6M3); assay: blockers of CaCl2-induced CDRE-lacZ signaling – S. cerevisiae, luminescence, secondary, dose response (AID 2388); format: functional, cell-based;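 note: yeast reporter cells carrying a calcineurin-responsive lacZ construct stimulated with calcium chloride; luminescent beta-galactosidase reporter signal in whole cells rather than isolated phosphatase activity; potency for inhibition where a drop in reporter signal means calcineurin blockade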
[19] = molecular target: T1, Heat shock factor protein 1; assay: enhancement of HSF1-driven luciferase signal – cell-based, NIH3T3, luminescence, dose retest, confirmation (AID 435004); format: functional;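 note: stress induced by proteasome inhibitor MG132 added 30 min after compound; luciferase reporter driven by HSF1 response element in NIH3T3 cells; actives raise luminescence as potentiators of the MG132 stress response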
[20] = molecular target: ATP-dependent molecular chaperone HSP82 (Candida albicans (strain WO-1) (Yeast), UniProt C4YTQ8); assay: steroid-induced GRE reporter decrease in yeast – S. cerevisiae, luminescence, Hsp90 inhibitor project, dose response (AID 2400); format: functional, cell-based;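 note: beta-galactosidase luminescence from glucocorticoid response element reporter as proxy for Hsp90 function; inhibitor potency where signal loss means Hsp90 inhibition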
ATP-dependent molecular chaperone HSP82, sequence (C4YTQ8 whole entry): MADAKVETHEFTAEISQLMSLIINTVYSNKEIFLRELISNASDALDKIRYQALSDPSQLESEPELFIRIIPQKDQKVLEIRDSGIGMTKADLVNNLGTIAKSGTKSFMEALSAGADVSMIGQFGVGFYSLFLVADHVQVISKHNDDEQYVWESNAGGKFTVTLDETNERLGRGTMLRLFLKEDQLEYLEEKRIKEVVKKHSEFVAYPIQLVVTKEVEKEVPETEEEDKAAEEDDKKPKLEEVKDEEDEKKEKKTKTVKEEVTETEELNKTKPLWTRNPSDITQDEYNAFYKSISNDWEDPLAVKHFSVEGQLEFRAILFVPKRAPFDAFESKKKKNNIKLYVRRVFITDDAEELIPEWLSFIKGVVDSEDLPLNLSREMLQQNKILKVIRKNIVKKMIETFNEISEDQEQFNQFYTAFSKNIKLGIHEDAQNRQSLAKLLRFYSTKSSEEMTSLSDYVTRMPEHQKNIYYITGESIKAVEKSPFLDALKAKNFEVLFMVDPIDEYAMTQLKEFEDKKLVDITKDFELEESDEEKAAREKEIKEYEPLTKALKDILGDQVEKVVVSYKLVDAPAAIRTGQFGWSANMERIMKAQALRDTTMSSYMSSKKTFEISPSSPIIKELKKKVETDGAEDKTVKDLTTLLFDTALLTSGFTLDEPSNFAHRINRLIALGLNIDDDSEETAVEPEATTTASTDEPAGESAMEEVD

E3 ubiquitin-protein ligase Mdm2, sequence (Q00987 whole entry): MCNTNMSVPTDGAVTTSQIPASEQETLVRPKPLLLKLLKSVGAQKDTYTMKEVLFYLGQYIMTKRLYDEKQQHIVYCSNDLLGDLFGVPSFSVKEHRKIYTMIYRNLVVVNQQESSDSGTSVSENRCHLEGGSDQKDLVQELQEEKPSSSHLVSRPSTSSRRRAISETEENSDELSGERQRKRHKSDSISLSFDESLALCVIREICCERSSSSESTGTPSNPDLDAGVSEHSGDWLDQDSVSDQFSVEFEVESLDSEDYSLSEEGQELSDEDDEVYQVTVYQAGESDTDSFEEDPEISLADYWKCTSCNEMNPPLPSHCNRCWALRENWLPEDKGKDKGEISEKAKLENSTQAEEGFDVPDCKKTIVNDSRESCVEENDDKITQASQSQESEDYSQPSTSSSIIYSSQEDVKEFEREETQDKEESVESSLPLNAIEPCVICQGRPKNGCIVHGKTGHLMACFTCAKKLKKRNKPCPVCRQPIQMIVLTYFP
Luciferin 4-monooxygenase, sequence (Q27757 whole entry): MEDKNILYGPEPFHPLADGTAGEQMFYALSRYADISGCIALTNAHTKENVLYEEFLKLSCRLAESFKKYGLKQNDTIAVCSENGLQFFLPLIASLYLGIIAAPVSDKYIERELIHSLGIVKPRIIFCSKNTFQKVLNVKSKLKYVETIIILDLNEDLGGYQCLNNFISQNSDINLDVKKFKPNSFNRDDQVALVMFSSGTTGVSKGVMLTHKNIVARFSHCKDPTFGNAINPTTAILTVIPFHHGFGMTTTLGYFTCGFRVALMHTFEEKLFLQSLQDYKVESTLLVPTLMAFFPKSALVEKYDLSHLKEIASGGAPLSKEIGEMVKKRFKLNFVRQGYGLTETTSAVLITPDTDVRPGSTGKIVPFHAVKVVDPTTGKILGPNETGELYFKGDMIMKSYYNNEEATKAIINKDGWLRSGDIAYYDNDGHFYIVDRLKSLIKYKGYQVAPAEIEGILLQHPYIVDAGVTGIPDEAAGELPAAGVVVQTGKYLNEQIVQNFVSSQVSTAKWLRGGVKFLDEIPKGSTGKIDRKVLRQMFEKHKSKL
Serine/threonine-protein phosphatase, sequence (B9W6M3 whole entry): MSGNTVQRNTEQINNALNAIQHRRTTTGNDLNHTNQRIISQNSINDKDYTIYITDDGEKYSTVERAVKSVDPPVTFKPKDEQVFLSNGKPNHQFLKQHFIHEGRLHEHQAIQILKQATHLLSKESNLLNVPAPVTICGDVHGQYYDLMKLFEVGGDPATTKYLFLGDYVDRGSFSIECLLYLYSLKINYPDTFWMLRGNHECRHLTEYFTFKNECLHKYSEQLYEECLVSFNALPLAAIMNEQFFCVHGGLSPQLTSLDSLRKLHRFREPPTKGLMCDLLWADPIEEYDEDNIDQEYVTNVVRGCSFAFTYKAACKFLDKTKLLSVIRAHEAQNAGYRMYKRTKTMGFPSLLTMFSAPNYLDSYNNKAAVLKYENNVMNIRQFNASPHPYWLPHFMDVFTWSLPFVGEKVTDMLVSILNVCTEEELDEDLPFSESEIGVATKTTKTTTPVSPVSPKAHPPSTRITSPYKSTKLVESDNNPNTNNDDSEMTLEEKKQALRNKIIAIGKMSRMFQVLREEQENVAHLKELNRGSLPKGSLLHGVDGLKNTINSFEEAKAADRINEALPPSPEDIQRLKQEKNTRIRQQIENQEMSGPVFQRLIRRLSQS

CC1CCCN(c2ncnc3c2cnn3-c2ccc(Cl)cc2)C1 (configuration not stated)
EC50 [1]: < 0.16 µM (active)
IC50 [2]: > 80 µM (inactive)
AC50 [3]: 1.34 µM (active)
AC50 [4]: > 52 µM (inactive)
AC50 [5]: < 0.068 µM (active)
AC50 [6]: 0.155 µM (active)
AC50 [7]: > 52 µM (inactive)

COc1ccc(COc2ccc3ccc(=O)oc3c2)cc1
AC50 [8]: 93.8 µM (active)

C=C1C(=O)O[C@@H]2C[C@@H](C)[C@@H]3C4OC4C(=O)[C@@]3(C)[C@@H](O)[C@H]12 (some centres not stated)
EC50 [9]: 6.66 µM (inconclusive)
EC50 [10]: 11.6 µM (not active)
EC50 [11]: > 120 µM (not active)
EC50 [12]: > 120 µM (not active)
EC50 [13]: > 120 µM (not active)
EC50 [14]: 0.644 µM (active)
CC50 [15]: 4.92 µM (active)
IC50 [16]: 2.43 µM (active)
AC50 [17]: 8.02 µM (active)

CCC(C)n1cnc2c(c1=O)c1nc3ccccc3nc1n2Cc1ccc(OC)cc1 (configuration not stated)
EC50 [9]: 47.7 µM (active)
EC50 [14]: 0.356 µM (active)
EC50 [18]: > 180 µM (inactive)
EC50 [19]: > 260 µM (inactive)
EC50 [20]: 14.7 µM (active)
